Values of other authors in patent publication US11872093B1, “Method of marking lesions” (NoduGloH LLC, priority 2022, dated 2024).

Conditions: ICG dye marking without use of a coil

persistence of dye effect after marking without a coil: fade away over several hours
SMILES: CC1(C)C(/C=C/C=C/C=C/C=C2\N(CCCCS(=O)(=O)O)c3ccc4ccccc4c3C2(C)C)=[N+](CCCCS(=O)(=O)[O-])c2ccc3ccccc3c21 [ICG dye, Indocyanine Green]
